Where a name gives a salt, the structure may show the parent alone.
Experiments:
[1] = tested on: TNF-α production by human monocyte strain THP-1 cells stimulated with LPS; test: Inhibition of LPS-induced TNF-α production in THP-1 cells (ELISA); type: cell-based; details: compound 10^−5M, THP-1 cells 10^6 cells/ml, LPS 2 μg/ml, 37° C., two hours; for inhibition at 10 µM: Homo sapiens, 2 h, read-out: Rate of Inhibition (%) of TNF-α production
Description: Each candidate compound was inspected for the effect of inhibiting TNF-α production induced by the stimulation with lipopolysaccharide (LPS), by an in vitro test according to the method proposed by McGeehan et al. (Nature, 1994, 370:558-561).
The test (assay) was carried out by determining the amount of TNF-α produced by the human monocyte strain THP-1 cells induced by the stimulation with LPS.
The culture medium used in this test was RPMI 1640 culture medium supplemented wiTNFetal calf serum (10%), L-glutamine (2 mM), 2-mercaptoethanol (50 μM), penicillin (50 units/ml) and streptomycin (50 μg/ml).
Regarding the cells, the human monocyte strain THP-1 cells cultivated in the foregoing culture medium were centrifuged at 100 xg for 5 minutes to remove the supernatant and then again suspended in a fresh culture medium prior to the practical use. The LPS used herein was derived from S. Typhimurium and this was dissolved in purified water and then diluted with the culture medium prior to use. Each compound to be tested (candidate compound) was dissolved in dimethyl sulfoxide (DMSO) and diluted with the culture medium prior to the practical use.
The cells (10^6 cells/ml) prepared according to the foregoing method were admixed with the LPS (2 μg/ml) and a compound to be tested (10^−5M), the cells were incubated at 37° C. for two hours and then centrifuged at 1000 xg for 5 minutes. The resulting supernatant of the culture medium was inspected for the level of TNF-α using the human TNF-α-specific ELISA kit. In this connection, it was confirmed that the supernatant obtained by cultivating the cells in the culture medium free of any LPS (control) never included any TNF-α.
The rate of the TNF-α production inhibitory effect observed for each candidate compound was determined according to the following equation:
Rate of Inhibition (%)=100×(A−B)/A
Wherein A is the level of TNF-α detected in the supernatant obtained from the culture medium free of any candidate compound and B is the level of TNF-α detected in the supernatant obtained from the culture medium containing a candidate compound.

Row | SMILES | inhibition at 10 µM [1] [%] | also measured
1 | CC(=O)SC[C@H](Cc1ccccc1)NC(=O)N(CCC(C)C)CCN(C)C [Compound 6-8, 1-[(1S)-2-(Acetylthio)-1-benzylethyl]-3-[2-(dimethylamino)ethyl]-3-isopentyl urea] | 60 | 
2 | CC(C)CCN(CCN)C(=O)N[C@H](CSSC[C@H](Cc1ccc(-c2ccccc2)cc1)NC(=O)N(CCN)CCC(C)C)Cc1ccc(-c2ccccc2)cc1.Cl.Cl [Compound 8-2, Bis[(2S)-2-[3-(2-aminoethyl)-3-isopentylureido]-3-(4-biphenylyl)propane]-disulfide di-hydrochloride] |  | Rate of Inhibition (%) of TNF-α production [1]: 66%
3 | CC(=O)SCCN(CCc1ccccc1)C(=O)N[C@@H](Cc1ccccc1)CN(C)C [Compound 6-3, 1-[2-(Acetylthio)ethyl]-3-[(1S)-1-benzyl-2-(dimethylamino)ethyl]-1-phenethyl urea] | 83 | 
4 | CC(=O)SC[C@H](Cc1ccc(-c2ccccc2)cc1)NC(=O)N(CCC(C)C)CCN(C)C [Compound 6-11, 1-[(1S)-2-(Acetylthio)-1-[(4-biphenylyl)methyl]ethyl]-3-[2-(dimethylamino)-ethyl]-3-isopentyl urea] | 76 | 
5 | CC(C)CCN(CCN)C(=O)N[C@H](CSSC[C@H](Cc1ccccc1)NC(=O)N(CCN)CCC(C)C)Cc1ccccc1 [Compound 8-1, Bis[(2S)-2-[3-(2-aminoethyl)-3-isopentylureido]-3-phenylpropane] Disulfide di-hydrochloride] | 81 | 
6 | CC(C)CCN(CCN)C(=O)N[C@H](CSSC[C@H](Cc1ccccc1)NC(=O)N(CCN)CCC(C)C)Cc1ccccc1 (as salt: hydrochloride) [Compound 8-1, Bis[(2S)-2-[3-(2-aminoethyl)-3-isopentylureido]-3-phenylpropane] Disulfide di-hydrochloride] |  | melting point: 100 °C (dec.)

From patent publication US6683200B2, “N-substituted-N′-substituted urea derivatives and pharmaceutical compositions containing the derivatives” (Santen Pharmaceutical Co., Ltd., priority 1999, dated 2004)
